Reference: patent US20120202801A1, “METHODS FOR TREATING BREAST CANCER” (priority 2009, published 2012)

Tested on: hypoxia-inducible endogenous VEGF expression
Assay: Hypoxia-inducible endogenous VEGF expression ELISA in HeLa cells, dose-response (EC50, Table 3)
Conditions: Homo sapiens, read-out: ELISA EC50 μM

| SMILES | EC50 [µM] |
| --- | --- |
| O=C(Oc1ccc(Cl)cc1)N1CCc2c([nH]c3ccc(Cl)cc23)C1c1ccc(OCCN2CCOCC2)cc1 (stereo not drawn) [Compound 331] | > 1 |
| CC(=O)N1CCN(CC(O)COc2ccc(C3c4[nH]c5ccc(Cl)cc5c4CCN3C(=O)Oc3ccc(Cl)cc3)cc2)CC1 (stereo not drawn) [Compound 415] | < 0.008 |
| O=C(Oc1ccc(Cl)cc1)N1CCc2c([nH]c3ccc(Cl)cc23)C1c1ccc(OCCCN2CCCC2)cc1 (stereo not drawn) [Compound 429] | < 0.008 |
| O=C(Oc1ccc(Cl)cc1)N1CCc2c([nH]c3ccc(Cl)cc23)C1c1ccc(OCCCN2CCCCC2)cc1 (stereo not drawn) [Compound 433] | < 0.008 |
| O=C(CN1CCOCC1)Nc1ccc(C2c3[nH]c4ccc(Cl)cc4c3CCN2C(=O)Oc2ccc(Cl)cc2)cc1 (stereo not drawn) [Compound 454] | 0.008 to 0.04 |
| O=C(Oc1ccc(Cl)cc1)N1CCc2c([nH]c3ccc(Cl)cc23)C1c1ccc(OCC(O)CN2CCCC2)cc1 (stereo not drawn) [Compound 462] | 0.008 to 0.04 |
| CN(C)CCCOc1ccc(C2c3[nH]c4ccc(Cl)cc4c3CCN2C(=O)Oc2ccc(Br)cc2)cc1 (stereo not drawn) [Compound 468] | 0.008 to 0.04 |
| CN(C)CCCOc1ccc(C2c3[nH]c4ccc(Cl)cc4c3CCN2C(=O)Oc2ccc(Cl)cc2)cc1 (stereo not drawn) [Compound 479] | 0.04 to 0.2 |
| CN(C)CC(=O)Nc1ccc(C2c3[nH]c4ccc(Cl)cc4c3CCN2C(=O)Oc2ccc(Cl)cc2)cc1 (stereo not drawn) [Compound 491] | 0.04 to 0.2 |
| CN(C)CCCOc1ccc(C2c3[nH]c4ccc(Cl)cc4c3CCN2C(=O)Oc2ccccc2)cc1 (stereo not drawn) [Compound 493] | 0.04 to 0.2 |
| COc1ccc(OC(=O)N2CCc3c([nH]c4ccc(Cl)cc34)C2c2ccc(OCCCN(C)C)cc2)cc1 (stereo not drawn) [Compound 501] | 0.04 to 0.2 |
| Cc1ccc(OC(=O)N2CCc3c([nH]c4ccc(Cl)cc34)C2c2ccc(OCCCN(C)C)cc2)cc1 (stereo not drawn) [Compound 502] | 0.04 to 0.2 |
| O=C1NC2CSC(CCCCC(=O)OCCOc3ccc(C4c5[nH]c6ccc(Cl)cc6c5CCN4C(=O)Oc4ccc(Cl)cc4)cc3)C2N1 (stereo not drawn) [Compound 544] | < 0.008 |
| O=C(Oc1ccc(Cl)cc1)Oc1ccc(C2c3[nH]c4ccc(Cl)cc4c3CCN2C(=O)Oc2ccc(Cl)cc2)cc1 (stereo not drawn) [Compound 578] | 0.04 to 0.2 |
| CC(=O)N1CCN(CC(O)COc2ccc(C3c4[nH]c5ccc(Cl)cc5c4CCN3C(=O)Oc3ccc(F)cc3)cc2)CC1 (stereo not drawn) [Compound 637] | < 0.008 |
| O=C(Oc1ccc(F)cc1)N1CCc2c([nH]c3ccc(Cl)cc23)C1c1ccc(OCC(O)CN2CCOCC2)cc1 (stereo not drawn) [Compound 638] | < 0.008 |
| O=C(Oc1ccc(Cl)cc1)N1CCc2c([nH]c3ccc(Cl)cc23)C1c1ccc(OCCCCN2CCCC2)cc1 (stereo not drawn) [Compound 698] | 0.008 to 0.04 |
| O=C(Oc1ccc(Cl)cc1)N1CCc2c([nH]c3ccc(Cl)cc23)C1c1ccc(OCCCCNCCO)cc1 (stereo not drawn) [Compound 699] | 0.008 to 0.04 |
| CC(C)NCCCCOc1ccc(C2c3[nH]c4ccc(Cl)cc4c3CCN2C(=O)Oc2ccc(Cl)cc2)cc1 (stereo not drawn) [Compound 700] | 0.008 to 0.04 |
| COCCCNCCCCOc1ccc(C2c3[nH]c4ccc(Cl)cc4c3CCN2C(=O)Oc2ccc(Cl)cc2)cc1 (stereo not drawn) [Compound 701] | 0.008 to 0.04 |
| O=C(Oc1ccc(Cl)cc1)N1CCc2c([nH]c3ccc(Cl)cc23)C1c1ccc(OCCCCN2CCOCC2)cc1 (stereo not drawn) [Compound 702] | 0.008 to 0.04 |
| O=C(Oc1ccc(Cl)cc1)N1CCc2c([nH]c3ccc(Cl)cc23)C1c1ccc(OCCCCN2CCCCC2)cc1 (stereo not drawn) [Compound 703] | 0.008 to 0.04 |
| CN1CCN(CCCCOc2ccc(C3c4[nH]c5ccc(Cl)cc5c4CCN3C(=O)Oc3ccc(Cl)cc3)cc2)CC1 (stereo not drawn) [Compound 704] | 0.04 to 0.2 |
| O=C(Oc1ccc(F)cc1)N1CCc2c([nH]c3ccc(Cl)cc23)C1c1ccc(OCCCCNCCO)cc1 (stereo not drawn) [Compound 735] | < 0.008 |
| O=C(Oc1ccc(F)cc1)N1CCc2c([nH]c3ccc(Cl)cc23)C1c1ccc(OCCCCN2CCCC2)cc1 (stereo not drawn) [Compound 736] | < 0.008 |
| COCCCNCCCCOc1ccc(C2c3[nH]c4ccc(Cl)cc4c3CCN2C(=O)Oc2ccc(F)cc2)cc1 (stereo not drawn) [Compound 737] | 0.008 to 0.04 |
| O=C(Oc1ccc(F)cc1)N1CCc2c([nH]c3ccc(Cl)cc23)C1c1ccc(OCCCCN2CCOCC2)cc1 (stereo not drawn) [Compound 738] | < 0.008 |
